Source: PubChem BioAssay AID2060890 (Molecular Pharmacology Branch, DTP, NCI, 2025)

Test system: LG0703-F948-PDC complex spheroid viability
Assay: Anticancer human tumor LG0703-F948-PDC patient-derived lung adenocarcinoma cell line growth inhibition [RAS]
Details: for IC50: curve of first compound; for viability, T/C: stronger effect = lower value; active = viability on the fitted dose curve at most 10% of control; inactive = the rest
From the text: RAS pathway inhibitors in Combinations in Complex Spheroids
A high-throughput screen of multi-cell type tumor spheroids was designed to identify active combinations of RAS pathway inhibitors and targeted small molecules. Complex spheroids include a stromal component modeled by human endothelial cells (HUVEC) and fibroblasts modeled by human mesenchymal stem cells (MSCs). The concentration ranges selected for each drug and investigational agent were based upon clinically achievable concentrations if the clinical Cmax of the agent was known.
Compounds. The drugs and investigational agents: abemaciclib (NSC768073), cobimetinib (NSC768068), divarasib (GDC6063, NSC841802), docetaxel (NSC628503), GDC-1971 (RLY-1971, NSC841576), gemcitabine (NSC613327), inavolisib (NSC800729), ipatasertib (NSC767898), KB-0742 (NSC834161), MRTX-1133 (NSC836407), osimertinib (NSC779217), RMC-4630 (NSC839698), RMC-6236 (NSC851965), RMC-6291 (NSC852671), Ro-3306 (NSC812927), sapanisertib (NSC764658), SN-38 (NSC673596), staurosporine (NSC755774), SY5609 (NSC837396), and tovorafenib (DAY101, NSC766906), were obtained from the National Cancer Institute (NCI) Developmental Therapeutics Program Chemical Repository. The FDA-approved anticancer drug set is available from the NCI Developmental Therapeutics Program. […] The stock solutions were prepared in dimethyl sulfoxide (DMSO, Sigma-Aldrich, St. Louis, MO, cat. D2650) at 800-fold the tested concentration and stored at -70 degrees C prior to their use. All drugs and investigational agents were tested over a range starting from a high concentration at or near the clinical Cmax and decreasing in half-log increments. If the clinical Cmax for an agent had not been determined, the highest concentration tested was 10 microM.
Cell Culture. All cells were maintained in an incubator at 37 degrees C and 5% CO2 with 95% humidity. The PDC lines were cultured according to standard operating procedures established by the NCI PDMR. All PDCs were thawed and cultured in Matrigel-coated flasks prepared with a working solution of 1X Ham's F-12 nutrient mix, without supplementation (Invitrogen, Waltham, MA, cat. 11765054), 100 U/mL penicillin-streptomycin (Invitrogen, cat. 15140122), and 2.5% Matrigel (Corning Inc., Corning, NY, cat. 354248) for the first three passages. The 362531-283-R-J2-PDC and 782815-120-R-J1-PDC lines were cultured in 6C/Colon 1B media, which includes advanced DMEM/F-12 (Thermo Fisher Scientific, cat. 12634028), 10 mM HEPES (Thermo Fisher Scientific, cat. 15630080), 1X GlutaMAX supplement (Thermo Fisher Scientific, cat. 35050061), 0.1 mg/mL primocin (InvivoGen, San Diego, CA, cat. ant-pm-2), 10% defined fetal bovine serum, heat inactivated (HyClone Laboratories Inc., Logan, UT, cat. SH30070.03HI), 50% L-WRN conditioned media (ATCC, cat. CRL-3276), 1.25 mM N-Acetyl-L-cysteine (Sigma-Aldrich, cat. A9165), 10 mM nicotinamide (Sigma-Aldrich, cat. N0636), 1X B-27 supplement (Thermo Fisher Scientific, cat. 17504044), 1X N-2 supplement (Thermo Fisher Scientific, cat. 17502048), 50 ng/mL human EGF (Thermo Fisher Scientific, cat. PHG0311), and 10 microM Y-27632 dihydrochloride (Tocris Bioscience, cat. 1254). The K12877-001-R-J1-PDC line was cultured in 6I media, which includes all 6C/Colon 1B media plus 10 ng/mL human FGF-10 (PeproTech, cat. 100-26), 1 ng/mL human FGF-2 (PeproTech, cat. 100-18B), 1 µM prostaglandin E2 (Tocris Bioscience, cat. 2296), […] hydrocortisone (Sigma-Aldrich, cat. H4001), and […] bovine insulin (Sigma-Aldrich, cat. I6634). The K86415-001-R-J1-PDC line was cultured in 6D media, which includes all 6C/Colon 1B media components minus the L-WRN conditioned media. The 485176-168-R4-J1-PDC was cultured in PANC media, which includes all 6C/Colon 1B media plus 100 ng/mL human FGF-10 (PeproTech, cat. 100-26), 500 nM SB-431542 (Selleckchem, cat. S1067), and 10 nM gastrin (Tocris Bioscience, cat. 3006). […]
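Also: spheroids exposed to agents for 7 days.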
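For viability, T/C in this document: 100% = DMSO vehicle wells.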

Cc1nc(N2CCC3(CC2)COC(C)C3N)c(CO)nc1Sc1ccnc(N)c1Cl (configuration not stated) + C#Cc1c(F)ccc2cc(O)cc(-c3ncc4c(N5CC6CCC(C5)N6)nc(OCC56CCCN5CC(F)C6)nc4c3F)c12
active: viability, T/C (second compound 0.1 µM, first compound 10 µM) 4.95% | viability, T/C (second compound 0.316 µM, first compound 10 µM) 6.94% | viability, T/C (second compound 1 µM, first compound 10 µM) 7.42% | viability, T/C (second compound 3.16 µM, first compound 3.16 µM) 9.6% | viability, T/C (second compound 3.16 µM, first compound 10 µM) 5.81% | viability, T/C (second compound 10 µM, first compound 3.16 µM) 6.12% | viability, T/C (second compound 10 µM, first compound 10 µM) 2.83%
< 0.0316 µM: IC50 (second compound 10 µM)
inactive: viability, T/C (second compound 0.0316 µM, first compound 0.0316 µM) 76.2% | viability, T/C (second compound 0.0316 µM, first compound 0.1 µM) 73.7% | viability, T/C (second compound 0.0316 µM, first compound 0.316 µM) 47.9% | viability, T/C (second compound 0.0316 µM, first compound 1 µM) 35.5% | viability, T/C (second compound 0.0316 µM, first compound 3.16 µM) 20.1% | viability, T/C (second compound 0.0316 µM, first compound 10 µM) 10.7% | viability, T/C (second compound 0.1 µM, first compound 0.0316 µM) 83.4% | viability, T/C (second compound 0.1 µM, first compound 0.1 µM) 63% | viability, T/C (second compound 0.1 µM, first compound 0.316 µM) 47.4% | viability, T/C (second compound 0.1 µM, first compound 1 µM) 35.9% | viability, T/C (second compound 0.1 µM, first compound 3.16 µM) 17.6% | viability, T/C (second compound 0.316 µM, first compound 0.0316 µM) 68.1% | viability, T/C (second compound 0.316 µM, first compound 0.1 µM) 60.1% | viability, T/C (second compound 0.316 µM, first compound 0.316 µM) 40.3% | viability, T/C (second compound 0.316 µM, first compound 1 µM) 26.4% | viability, T/C (second compound 0.316 µM, first compound 3.16 µM) 14.4% | viability, T/C (second compound 1 µM, first compound 0.0316 µM) 52.4% | viability, T/C (second compound 1 µM, first compound 0.1 µM) 51.7% | viability, T/C (second compound 1 µM, first compound 0.316 µM) 35.8% | viability, T/C (second compound 1 µM, first compound 1 µM) 19.9% | viability, T/C (second compound 1 µM, first compound 3.16 µM) 15.5% | viability, T/C (second compound 3.16 µM, first compound 0.0316 µM) 50.3% | viability, T/C (second compound 3.16 µM, first compound 0.1 µM) 41.5% | viability, T/C (second compound 3.16 µM, first compound 0.316 µM) 28.5% | viability, T/C (second compound 3.16 µM, first compound 1 µM) 15% | viability, T/C (second compound 10 µM, first compound 0.0316 µM) 28.7% | viability, T/C (second compound 10 µM, first compound 0.1 µM) 29.3% | viability, T/C (second compound 10 µM, first compound 0.316 µM) 20.1% | viability, T/C (second compound 10 µM, first compound 1 µM) 10.6%
0.287 µM: IC50 (second compound 0.1 µM)
0.37 µM: IC50 (second compound 0.0316 µM)
0.0858 µM: IC50 (second compound 1 µM)
0.0327 µM: IC50 (second compound 3.16 µM)
0.181 µM: IC50 (second compound 0.316 µM)
